Publication PMC10462762, “Chemoenzymatic synthesis of genetically-encoded multivalent liquid N-glycan arrays” (Nature Communications, 2023)

Biological target: T1, α-(2→6)-sialyltransferase from Photobacterium damselae (Pd26ST) (Photobacterium damselae, UniProt O66375)
T1 construct: gene bst; recombinant, expressed and purified as in supplementary information
T1 sequence (O66375 16-675): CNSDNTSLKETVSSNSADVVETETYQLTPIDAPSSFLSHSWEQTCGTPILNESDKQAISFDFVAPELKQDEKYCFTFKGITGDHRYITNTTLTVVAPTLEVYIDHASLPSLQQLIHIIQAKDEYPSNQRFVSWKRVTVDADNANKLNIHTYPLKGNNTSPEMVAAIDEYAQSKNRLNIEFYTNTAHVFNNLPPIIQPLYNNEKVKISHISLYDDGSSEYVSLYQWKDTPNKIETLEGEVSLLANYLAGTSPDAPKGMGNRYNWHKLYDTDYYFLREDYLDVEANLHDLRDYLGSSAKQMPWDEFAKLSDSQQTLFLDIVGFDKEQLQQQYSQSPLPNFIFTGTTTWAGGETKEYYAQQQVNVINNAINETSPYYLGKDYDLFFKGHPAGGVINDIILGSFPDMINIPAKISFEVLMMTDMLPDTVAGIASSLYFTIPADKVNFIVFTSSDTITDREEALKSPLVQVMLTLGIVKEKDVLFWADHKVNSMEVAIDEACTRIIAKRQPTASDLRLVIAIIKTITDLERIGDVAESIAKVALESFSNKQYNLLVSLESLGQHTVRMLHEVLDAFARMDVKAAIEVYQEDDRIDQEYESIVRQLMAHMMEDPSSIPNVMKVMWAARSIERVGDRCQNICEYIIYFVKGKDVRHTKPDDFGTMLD
Test: sialylation of phage-displayed LacNAc / Lac, MALDI-TOF MS
Format: biochemical
Conditions: donor substrate; acceptor LacNAc- and lactose-phage; 9 h

With CC(=O)N[C@H]1[C@H]([C@H](O)[C@H](O)CO)O[C@](OP(=O)(O)OC[C@H]2O[C@@H](n3ccc(N)nc3=O)[C@H](O)[C@@H]2O)(C(=O)O)C[C@@H]1O [CMP-Neu5Ac] the “sialylation of phage-displayed LacNAc / Lac, MALDI-TOF MS” value was “(Pd26ST) and cytidine-5’-monophosphate-N-acetylneuraminic acid (CMP-Neu5Ac)”.
